According to EP0183129A1, “Quinolonecarboxylic acid derivatives” (KYORIN PHARMACEUTICAL CO., LTD., priority 1984, dated 1986):
≈ marks a conversion by molar mass, not a printed value. Like-named read-outs stand apart in the source and are kept apart here.

Assays:
[1] = test system: Alcaligenes faecalis 0104002; assay: In vitro antibacterial activity, MIC (standard strain); assay type: cell-based; settings: Alcaligenes faecalis 0104002; 10^6 cells/ml; standard strain; listed as Exp.4
[2] = test system: Serratia marcescens IID 618; assay: as above; assay type: cell-based; settings: Serratia marcescens IID 618; 10^6 cells/ml; standard strain; listed as Exp.4
B. fragilis 25285 = assay: as above; assay type: cell-based, Bacteroides fragilis; settings: B. fragilis 25285; 10^6 cells/ml; standard strain; listed as Exp.4
[3] = test system: S. aureus IID 670 (Terajima); assay: as above; assay type: cell-based, Staphylococcus aureus; settings: S. aureus IID 670 (Terajima); 10^6 cells/ml; standard strain; listed as Exp.4
M. pneumoniae Mac. = assay: In vitro antibacterial activity against Mycoplasma, MIC; assay type: cell-based; settings: Mycoplasmoides pneumoniae, 120 h; M. pneumoniae Mac.; no visible growth after incubation for 5 days; read-out: MIC
From the text: Experiment-3 In vitro antibacterial activity against Mycoplasma

B. fragilis 0558 = assay: In vitro antibacterial activity, MIC (standard strain); assay type: cell-based, Bacteroides fragilis; settings: B. fragilis 0558; 10^6 cells/ml; standard strain; listed as Exp.4
[4] = test system: Enterobacter cloacae IID 977; assay: as above; assay type: cell-based; settings: Enterobacter cloacae IID 977; 10^6 cells/ml; standard strain; listed as Exp.4
[5] = test system: Fusobacterium varium KYA 8501; assay: as above; assay type: cell-based; settings: Fusobacterium varium KYA 8501; 10^6 cells/ml; standard strain; listed as Exp.4
E. coli ML4707 = assay: In vivo antibacterial activity against systemic infection in mice; set-up: species or system mice (ICR-S); settings: Escherichia coli, ML4707; mice (ICR-S); oral, an hour after intraperitoneal infection; challenge dose 2.7 x 10^6 ~ 8.8 x 10^6 cfu/mouse; read-out: ED50 E. coli ML4707
Experimental: (§1) Experiment-2 In vivo antibacterial activity against systemic infection in mice (ICR-S)
(§2) The infections were produced by intraperitoneal injection of a suspension of the bacterial culture corresponding to the germ studied. The products were administered orally at an hour after the infection.

S. pneumoniae S-4288 = assay: as above; set-up: species or system mice (ICR-S); settings: Streptococcus pneumoniae, S4288; mice (ICR-S); oral, an hour after intraperitoneal infection; challenge dose 7.5 x 10^4 ~ 4.8 x 10^6 cfu/mouse; read-out: ED50 S. pneumoniae S-4288
Experimental: as §1, §2

S. aureus Smith = assay: as above; set-up: species or system mice (ICR-S); settings: Staphylococcus aureus, po, mice (ICR-S), an hour after intraperitoneal infection
Experimental: as §1, §2

[6] = test system: Acinetobacter anitratus IID 876; assay: In vitro antibacterial activity, MIC (standard strain); assay type: cell-based; settings: Acinetobacter anitratus IID 876; 10^6 cells/ml; standard strain; listed as Exp.4
[7] = test system: Escherichia coli NIHJ JC-2; assay: as above; assay type: cell-based; settings: Escherichia coli NIHJ JC-2; 10^6 cells/ml; standard strain; listed as Exp.4
S. epidermidis IID 866 = assay: as above; assay type: cell-based; settings: S. epidermidis IID 866; 10^6 cells/ml; standard strain; listed as Exp.4
P. aeruginosa IFO 12689 = assay: as above; assay type: cell-based, Pseudomonas aeruginosa; settings: P. aeruginosa IFO 12689; 10^6 cells/ml; standard strain

Compound: NCC1CCN(c2c(F)cc3c(=O)c(C(=O)O)cn(C4CC4)c3c2F)C1 (stereo not shown) [Example 4, 7-(3-Aminomethyl-1-pyrrolidinyl)-1-cyclopropyl-6,8-difluoro-1,4-dihydro-4-oxo-3-quinolinecarboxylic acid]
- MIC [1]: 0.78 µg/mL (≈ 2.15 µM)
- MIC [2]: 0.10 µg/mL (≈ 0.275 µM)
- MIC (B. fragilis 25285): 0.78 µg/mL (≈ 2.15 µM)
- MIC [3]: 0.025 µg/mL (≈ 0.0688 µM)
- MIC (M. pneumoniae Mac.): 0.025 µg/mL (≈ 0.0688 µM)
- MIC (B. fragilis 0558): 0.78 µg/mL (≈ 2.15 µM)
- MIC [4]: 0.05 µg/mL (≈ 0.138 µM)
- MIC [5]: 1.56 µg/mL (≈ 4.29 µM)
- ED50 (E. coli ML4707): 3 mg/kg
- ED50 (S. pneumoniae S-4288): 13.8 mg/kg
- ED50 (S. aureus Smith; challenge dose 5.5 x 10^5 cfu/mouse, n=5, read-out: ED50 against S. aureus Smith): 1.57 mg/kg
- ED50 (S. aureus Smith; challenge dose 6.0 x 10^5 cfu/mouse, read-out: ED50 S. aureus Smith): 1.8 mg/kg
- MIC [6]: 0.05 µg/mL (≈ 0.138 µM)
- MIC [7]: 0.0125 µg/mL (≈ 0.0344 µM)
- MIC (S. epidermidis IID 866): 0.025 µg/mL (≈ 0.0688 µM)
- MIC (P. aeruginosa IFO 12689): 0.39 µg/mL (≈ 1.07 µM)
